These results are taken from ChEMBL document CHEMBL3244107, “Synthesis and structure-activity relationships of bestatin analogues, inhibitors of aminopeptidase B” (J Med Chem, 1977).

Data set [1] is described as follows: Retardation factor, Rf value of the compound using BuOH-AcOH-H20 at 4:1:1 ratio by ninhydrin. The data set is classed as physicochemical.
The nature of data set [2]: Inhibition of leucine aminopeptidase B (unknown origin) using 0.2 mM L-leucine-beta-naphthylamide. More on the design: species or system Homo sapiens.
Another data set deals with T1, Aminopeptidase B (Rattus norvegicus, UniProt O09175).
T1 sequence (O09175 whole entry): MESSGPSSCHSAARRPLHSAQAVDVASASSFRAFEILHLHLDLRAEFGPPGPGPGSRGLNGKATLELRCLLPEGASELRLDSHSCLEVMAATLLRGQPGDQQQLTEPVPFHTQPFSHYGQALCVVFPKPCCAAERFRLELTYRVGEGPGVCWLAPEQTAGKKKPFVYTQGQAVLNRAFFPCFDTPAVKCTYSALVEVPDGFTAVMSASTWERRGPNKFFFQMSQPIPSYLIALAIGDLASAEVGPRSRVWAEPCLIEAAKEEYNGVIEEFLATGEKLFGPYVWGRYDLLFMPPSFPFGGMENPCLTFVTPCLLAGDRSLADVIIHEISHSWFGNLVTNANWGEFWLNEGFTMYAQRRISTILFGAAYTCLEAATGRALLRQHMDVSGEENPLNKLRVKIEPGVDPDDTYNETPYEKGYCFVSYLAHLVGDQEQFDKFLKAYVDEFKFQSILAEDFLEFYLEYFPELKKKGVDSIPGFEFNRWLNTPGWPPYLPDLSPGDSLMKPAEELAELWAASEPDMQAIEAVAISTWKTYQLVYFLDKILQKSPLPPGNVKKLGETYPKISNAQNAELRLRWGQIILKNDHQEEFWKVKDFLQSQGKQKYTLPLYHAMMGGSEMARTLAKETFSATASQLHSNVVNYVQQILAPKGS
The experiment in a line: Inhibition of rat liver aminopeptidase B using 0.2 mM […] by colorimetry.

pIC50: −log10 of the molar value. Converted amounts (≈) assume the structure as drawn. Bounds are passed on as bounds.

For the compound `CC(C)[C@H](NC(=O)[C@@H](O)[C@H](N)Cc1ccccc1)C(=O)O`, the Rf in data set [1] was determined as 0.42. Take `CCCCCCC(NC(=O)[C@@H](O)[C@H](N)Cc1ccccc1)C(=O)O` (mixture of isomers): the Rf in data set [1] is reported as 0.58. Same read-out and setting: the value for `CC(C)C[C@H](NC(=O)[C@H](O)[C@H](N)Cc1ccc(Cl)cc1)C(=O)O` was 0.42; that for `CC(C)C[C@H](NC(=O)[C@@H](O)[C@H](N)Cc1ccc([N+](=O)[O-])cc1)C(=O)O` was 0.58; that for `CC(C)C[C@H](NC(=O)[C@@H](O)[C@H](N)CC(C)C)C(=O)O` was 0.49. As for `CC(C)C[C@H](NC(=O)[C@H](O)[C@H](N)c1ccccc1)C(=O)O`, in data set [1], the Rf came to 0.38. With `CC(C)C[C@H](NC(=O)[C@@H](O)[C@@H](N)Cc1ccccc1)C(=O)O`, the IC50 (as a rule, the concentration that gives 50% inhibition) in data set [2] turned out to be 0.07 µg/mL (≈ 0.227 µM). Moreover, the Rf in data set [1] turned out to be 0.37. For `N[C@H](Cc1ccccc1)[C@H](O)C(=O)NCCCCCC(=O)O`, at Aminopeptidase B, the negative logarithm of the IC50 (pIC50) (commonly −log10 of the IC50, conventionally taken in molar units) is 3.45. Further, the Rf in data set [1] amounted to 0.48.

`CC(C)C[C@@H](NC(=O)[C@H](O)[C@H](N)Cc1ccccc1)C(=O)O` had a negative logarithm of the IC50 (pIC50) at Aminopeptidase B of less than 3.09. In data set [2], this compound registered a concentration for half-maximal inhibition (IC50) of more than 250 µg/mL. Also, the Rf in data set [1] is 0.37. At Aminopeptidase B, `CC(C)C[C@H](NC(=O)[C@@H](O)[C@H](N)Cc1ccccc1)C(=O)O` [UBENIMEX] had a pIC50 of 6.79. The compound also gave an IC50 in data set [2] of 0.01 µg/mL (≈ 0.0324 µM). Also, in data set [1], the Rf is given as 0.48. With `N[C@H](Cc1ccccc1)[C@H](O)C(=O)N[C@@H](CCC(=O)O)C(=O)O`, the Rf in data set [1] came to 0.27. As to `Cc1ccc(C[C@@H](N)[C@@H](O)C(=O)N[C@@H](CC(C)C)C(=O)O)cc1`, in data set [1], the Rf was found to be 0.53.

As to `CC(C)C[C@H](NC(=O)[C@H](O)CN)C(=O)O`, on Aminopeptidase B, the pIC50 is less than 2.94. The Rf in data set [1] stood at 0.13.

On to `CC(C)C[C@H](NC(=O)[C@@H](O)[C@H](N)Cc1ccc(Cl)cc1)C(=O)O`, for which the Rf in data set [1] was found to be 0.52.

`CC(C)C[C@H](NC(=O)[C@@H](O)[C@H](N)CC1CCCCC1)C(=O)O`: the negative-log IC50 (pIC50) on Aminopeptidase B is 5.46. In data set [1], the Rf stood at 0.47.

Regarding `CC(C)CCNC(=O)[C@@H](O)[C@H](N)Cc1ccccc1.Cl`, at Aminopeptidase B, the pIC50 was 3.25. Also, the Rf in data set [1] is 0.65. On Aminopeptidase B, `CC(C)C[C@H](NC(=O)[C@@H](O)[C@H](N)Cc1ccccc1)C(=O)NCC(=O)O` had a pIC50 of 4.03. For the same compound, the Rf in data set [1] is listed as 0.34. In turn, `CC(C)C[C@@H](NC(=O)[C@@H](O)[C@@H](N)Cc1ccccc1)C(=O)O` had a pIC50 against Aminopeptidase B of 6.79. This compound also came in with an IC50 in data set [2] of 2.7 µg/mL (≈ 8.76 µM). Moreover, the Rf in data set [1] amounted to 0.52. Consider `N[C@H](Cc1ccccc1)[C@H](O)C(=O)NCC(=O)O`, for which the Rf in data set [1] was determined as 0.26. At Aminopeptidase B, `CC[C@H](C)[C@H](NC(=O)[C@@H](O)[C@H](N)Cc1ccccc1)C(=O)O` had a negative-log IC50 (pIC50) of 6.89. The Rf in data set [1] was found to be 0.48. As to `N[C@H](Cc1ccccc1)[C@H](O)C(=O)N1CCC[C@H]1C(=O)O`, the negative logarithm of the IC50 (pIC50) on Aminopeptidase B was less than 3.07. The Rf in data set [1] turned out to be 0.25. `CCC[C@H](NC(=O)[C@@H](O)[C@H](N)Cc1ccccc1)C(=O)O`: the Rf in data set [1] is 0.41.

Consider `CC(C)C[C@H](NC(=O)[C@H](O)[C@H](N)CC(C)C)C(=O)O`, for which, in data set [1], the Rf turned out to be 0.43. On to `CC(C)C[C@H](NC(=O)[C@@H](O)[C@H](N)Cc1ccc(N)cc1)C(=O)O`, for which, in data set [1], the Rf stood at 0.25. On to `CC(C)C[C@H](NC(=O)C(O)C(N)Cc1ccccc1Cl)C(=O)O` (mixture of isomers), for which the Rf in data set [1] is listed as 0.46. As to `N[C@H](Cc1ccccc1)[C@H](O)C(=O)N[C@@H](Cc1ccccc1)C(=O)O`, the Rf in data set [1] was found to be 0.44.

On to `CC(C)C[C@@H](NC(=O)[C@@H](O)[C@H](N)Cc1ccccc1)C(=O)O`, for which the half-maximal inhibitory concentration (IC50) in data set [2] was 3.4 µg/mL (≈ 11 µM). The Rf in data set [1] was found to be 0.49.

In the case of `NC(=O)CC[C@H](NC(=O)[C@@H](O)[C@H](N)Cc1ccccc1)C(=O)O`, the Rf in data set [1] was determined as 0.17. As for `CCCC[C@H](NC(=O)[C@@H](O)[C@H](N)Cc1ccccc1)C(=O)O`, the Rf in data set [1] was determined as 0.47. On Aminopeptidase B, `N[C@H](Cc1ccccc1)[C@H](O)C(=O)NCCC(=O)O` gave a pIC50 of 3.85. In data set [1], the Rf is on record as 0.34. On to `CC(C)C[C@H](NC(=O)[C@H](O)[C@@H](N)Cc1ccccc1)C(=O)O`, for which, at Aminopeptidase B, the negative-log IC50 (pIC50) was less than 3.09. In data set [2], the IC50 is more than 250 µg/mL. Also, the Rf in data set [1] amounted to 0.49. As for `Cc1ccc(C[C@@H](N)[C@H](O)C(=O)N[C@@H](CC(C)C)C(=O)O)cc1`, in data set [1], the Rf was determined as 0.58. With `N[C@H](Cc1ccccc1)[C@H](O)C(=O)NCCCC(=O)O`, the negative-log IC50 (pIC50) at Aminopeptidase B is 3.41. For the same compound, the Rf in data set [1] stood at 0.35. With `CC(C)C[C@H](NC(=O)[C@@H](O)[C@H](N)c1ccccc1)C(=O)O`, the Rf in data set [1] is 0.41.

For `CC(C)C[C@H](NC(=O)[C@H](O)[C@H](N)Cc1ccccc1)C(=O)O`, at Aminopeptidase B, the pIC50 was 3.49. For the same compound, in data set [2], the half-inhibitory concentration (IC50) is 7.5 µg/mL (≈ 24.3 µM). In addition, the Rf in data set [1] is reported as 0.52. For the compound `CC(C)C[C@@H](NC(=O)[C@H](O)[C@@H](N)Cc1ccccc1)C(=O)O`, the negative-log IC50 (pIC50) at Aminopeptidase B is 3.36. In data set [2], this compound showed a 50% inhibitory concentration (IC50) of more than 250 µg/mL. Further, the Rf in data set [1] came out at 0.48. Regarding `CC(C)C[C@H](NC(=O)[C@@H](O)CN)C(=O)O`, the negative-log IC50 (pIC50) at Aminopeptidase B was 3.19. For the same compound, the Rf in data set [1] is 0.13. On to `CSCC[C@H](NC(=O)[C@@H](O)[C@H](N)Cc1ccccc1)C(=O)O`, for which the Rf in data set [1] was 0.37. On to `CC(C)C[C@H](NC(=O)[C@@H](O)[C@@H](C)N)C(=O)O`, for which, in data set [1], the Rf turned out to be 0.27. The same measure, in the same setting: the value for `CC(C)C[C@H](NC(=O)[C@H](O)[C@@H](C)N)C(=O)O` was 0.23. For the compound `NCCCC[C@H](NC(=O)[C@@H](O)[C@H](N)Cc1ccccc1)C(=O)O`, the negative-log IC50 (pIC50) against Aminopeptidase B is less than 3.11. For the same compound, the Rf in data set [1] stood at 0.06. The matching figures for `C[C@H](NC(=O)[C@@H](O)[C@H](N)Cc1ccccc1)C(=O)O`: 5.99 and 0.21.

Compound `N[C@H](Cc1ccccc1)[C@H](O)C(=O)N[C@@H](CO)C(=O)O` had a pIC50 at Aminopeptidase B of 5.61. Besides, in data set [1], the Rf was 0.2.
